What was measured:
[1] = target: T1, Heat shock protein HSP90 (Homo sapiens) (UniProt P07900+P08238); test: Inhibition of HSP90 in human MCF7 cells assessed as cell cycle arrest by measuring accumulation at G0/G1 phase at 5 uM measured after 24 hrs by RNaseA/propidium iodide staining based flow cytometric analysis (reference value: 39.10 %); set-up: scale not given: the % may be the effect or the level left
[2] = target: T1, Heat shock protein HSP90 (Homo sapiens); test: Inhibition of HSP90 in human MCF7 cells assessed as induction of mitochondrial membrane potential loss by measuring cell population with mitochondrial membrane potential collapse at 2.5 uM after 24 hrs by JC1 staining-based flow cytometry analysis (reference value: 6.53 %); set-up: scale not given: the % may be the effect or the level left
[3] = target: T1, Heat shock protein HSP90 (Homo sapiens); test: Inhibition of HSP90 in human MCF7 cells assessed as induction of mitochondrial membrane potential loss by measuring cell population with intact mitochondrial membrane potential at 10 uM after 24 hrs by JC1 staining-based flow cytometry analysis (reference value: 92.39 %); set-up: scale not given: the % may be the effect or the level left
[4] = target: T1, Heat shock protein HSP90 (Homo sapiens); test: Inhibition of HSP90 in human MCF7 cells assessed as cell cycle arrest by measuring accumulation at G0/G1 phase at 10 uM measured after 24 hrs by RNaseA/propidium iodide staining based flow cytometric analysis (reference value: 39.10 %); set-up: scale not given: the % may be the effect or the level left
[5] = target: T1, Heat shock protein HSP90 (Homo sapiens); test: Inhibition of HSP90 in human MCF7 cells assessed as cell cycle arrest by measuring accumulation at G2/M phase at 5 uM measured after 24 hrs by RNaseA/propidium iodide staining based flow cytometric analysis (reference value: 25.08 %); set-up: scale not given: the % may be the effect or the level left
[6] = target: T1, Heat shock protein HSP90 (Homo sapiens); test: Inhibition of HSP90 in human MCF7 cells assessed as induction of mitochondrial membrane potential loss by measuring cell population with intact mitochondrial membrane potential at 5 uM after 24 hrs by JC1 staining-based flow cytometry analysis (reference value: 92.39 %); set-up: scale not given: the % may be the effect or the level left
[7] = target: T1, Heat shock protein HSP90 (Homo sapiens); test: Inhibition of HSP90 in human MCF7 cells assessed as induction of mitochondrial membrane potential loss by measuring cell population with intact mitochondrial membrane potential at 2.5 uM after 24 hrs by JC1 staining-based flow cytometry analysis (reference value: 92.39 %); set-up: scale not given: the % may be the effect or the level left
[8] = target: T1, Heat shock protein HSP90 (Homo sapiens); test: Inhibition of HSP90 in human MCF7 cells assessed as induction of apoptosis by measuring necrotic cells at 2.5 uM measured after 24 hrs by annexinV-FITC/propidium iodide staining based flow cytometry (reference value: 0.01 %); type: cell-based; set-up: scale not given: the % may be the effect or the level left
[9] = target: T1, Heat shock protein HSP90 (Homo sapiens); test: Inhibition of HSP90 in human MCF7 cells assessed as cell cycle arrest by measuring accumulation at G2/M phase at 2.5 uM measured after 24 hrs by RNaseA/propidium iodide staining based flow cytometric analysis (reference value: 25.08 %); set-up: scale not given: the % may be the effect or the level left
[10] = target: T1, Heat shock protein HSP90 (Homo sapiens); test: Inhibition of HSP90 in human MCF7 cells assessed as cell cycle arrest by measuring accumulation at Sub-G1 phase at 10 uM measured after 24 hrs by RNaseA/propidium iodide staining based flow cytometric analysis (reference value: 3.75 %); set-up: scale not given: the % may be the effect or the level left
[11] = target: T1, Heat shock protein HSP90 (Homo sapiens); test: Inhibition of HSP90 in human MCF7 cells assessed as cell cycle arrest by measuring accumulation at S phase at 10 uM measured after 24 hrs by RNaseA/propidium iodide staining based flow cytometric analysis (reference value: 7.08 %); set-up: scale not given: the % may be the effect or the level left
[12] = target: T1, Heat shock protein HSP90 (Homo sapiens); test: Inhibition of HSP90 in human MCF7 cells assessed as induction of apoptosis by measuring early apototic cells at 2.5 uM measured after 24 hrs by annexinV-FITC/propidium iodide staining based flow cytometry (reference value: 1.31 %); type: cell-based; set-up: scale not given: the % may be the effect or the level left
[13] = target: T1, Heat shock protein HSP90 (Homo sapiens); test: Inhibition of HSP90 in human MCF7 cells assessed as induction of mitochondrial membrane potential loss by measuring cell population with mitochondrial membrane potential collapse at 2.5 to 10 microM after 24 hrs by JC1 staining-based flow cytometry analysis; details: dose microM 2.5-10, time 24.0 hrs
[14] = target: T1, Heat shock protein HSP90 (Homo sapiens); test: Inhibition of HSP90 in human MCF7 cells assessed as cell cycle arrest by measuring accumulation at G2/M phase at 10 uM measured after 24 hrs by RNaseA/propidium iodide staining based flow cytometric analysis (reference value: 25.08 %); set-up: scale not given: the % may be the effect or the level left
[15] = target: T1, Heat shock protein HSP90 (Homo sapiens); test: Inhibition of HSP90 in human MCF7 cells assessed as cell cycle arrest by measuring accumulation at S phase at 5 uM measured after 24 hrs by RNaseA/propidium iodide staining based flow cytometric analysis (reference value: 7.08 %); set-up: scale not given: the % may be the effect or the level left
[16] = target: T1, Heat shock protein HSP90 (Homo sapiens); test: Inhibition of HSP90 in human MCF7 cells assessed as induction of nuclear morphological changes by measuring horse shoe shaped nuclei formation at 2.5 to 10 uM by DAPI staining based fluorescence microscopy analysis; type: cell-based; details: dose microM 2.5-10
[17] = target: T1, Heat shock protein HSP90 (Homo sapiens); test: Inhibition of HSP90 in human MCF7 cells assessed as induction of apoptosis by measuring live cells at 2.5 uM measured after 24 hrs by annexinV-FITC/propidium iodide staining based flow cytometry (reference value: 90.77 %); type: cell-based; set-up: scale not given: the % may be the effect or the level left
[18] = target: T1, Heat shock protein HSP90 (Homo sapiens); test: Inhibition of HSP90 in human MCF7 cells assessed as induction of apoptosis by measuring late apototic cells at 5 uM measured after 24 hrs by annexinV-FITC/propidium iodide staining based flow cytometry (reference value: 7.91 %); type: cell-based; set-up: scale not given: the % may be the effect or the level left
[19] = target: T1, Heat shock protein HSP90 (Homo sapiens); test: Inhibition of HSP90 in human MCF7 cells assessed as induction of apoptosis by measuring total apoptotic and dead cell population at 0.5 to 4 uM measured after 24 hrs by annexinV-FITC/propidium iodide staining based flow cytometry; details: dose microM 0.5-4, time 24.0 hrs
[20] = target: T1, Heat shock protein HSP90 (Homo sapiens); test: Inhibition of HSP90 in human MCF7 cells assessed as induction of apoptosis by measuring necrotic cells at 5 uM measured after 24 hrs by annexinV-FITC/propidium iodide staining based flow cytometry (reference value: 0.01 %); type: cell-based; set-up: scale not given: the % may be the effect or the level left

Activity [1]: 28%
Activity [2]: 12.7%
Activity [3]: 46%
Activity [4]: 25.2%
Activity [5]: 23%
Activity [6]: 75.3%
Activity [7]: 85.4%
Activity [9]: 27.2%
Activity [10]: 23.7%
Activity [11]: 4.13%
Activity [12]: 1.94%
inhibition [13]: Dose-dependent effect
Activity [14]: 20.1%
Activity [15]: 5.15%
inhibition [16]: Dose-dependent effect
Activity [17]: 87.9%
Activity [18]: 18.6%
inhibition [19]: Dose-dependent effect
SMILES: Nc1nc(-c2ccc(Br)cc2)cc(-c2cn(-c3ccc(Cl)cc3)nc2-c2ccc([N+](=O)[O-])cc2)n1
Activity [8]: 0.07%
Activity [20]: 0.17%
